Target: T1, α-xylosidase (Xylsa) (Saccharolobus solfataricus, UniProt Q9P999)
T1 sequence (Q9P999 1-731): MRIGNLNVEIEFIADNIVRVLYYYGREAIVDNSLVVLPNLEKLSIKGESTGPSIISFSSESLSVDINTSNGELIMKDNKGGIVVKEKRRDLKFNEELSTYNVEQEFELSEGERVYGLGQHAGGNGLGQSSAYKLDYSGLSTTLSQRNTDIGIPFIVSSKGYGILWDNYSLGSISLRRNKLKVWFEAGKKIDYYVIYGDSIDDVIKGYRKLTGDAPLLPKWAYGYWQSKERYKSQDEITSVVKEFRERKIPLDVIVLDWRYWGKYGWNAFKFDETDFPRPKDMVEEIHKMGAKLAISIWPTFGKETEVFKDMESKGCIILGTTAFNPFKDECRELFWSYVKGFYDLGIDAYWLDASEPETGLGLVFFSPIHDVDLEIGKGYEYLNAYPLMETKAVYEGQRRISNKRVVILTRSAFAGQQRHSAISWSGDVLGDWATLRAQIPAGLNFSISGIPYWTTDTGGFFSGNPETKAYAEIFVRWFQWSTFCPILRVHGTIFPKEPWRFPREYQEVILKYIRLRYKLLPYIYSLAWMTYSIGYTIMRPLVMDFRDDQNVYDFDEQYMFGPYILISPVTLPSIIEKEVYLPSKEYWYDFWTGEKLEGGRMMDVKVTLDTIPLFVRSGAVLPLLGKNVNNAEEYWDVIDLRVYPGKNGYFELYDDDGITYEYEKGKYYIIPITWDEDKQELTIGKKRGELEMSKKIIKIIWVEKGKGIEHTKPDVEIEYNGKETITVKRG
Assay: HPLC and ESI-MS of digestion product
Format: biochemical
Conditions: 150 mM sodium acetate pH 5.5, 65 °C, 3 h; second step, gives G3

In the case of `Cc1cc(=O)oc2cc(O[C@@H]3O[C@H](C(=O)O)[C@@H](O)[C@H](O[C@H]4OC[C@@H](O)[C@H](O[C@@H]5O[C@H](C(=O)O)[C@@H](O)[C@H](O[C@H]6OC[C@@H](O)[C@H](O)[C@H]6O)[C@H]5O)[C@H]4O)[C@H]3O)ccc12` [G4], the “HPLC and ESI-MS of digestion product” value was “The product of the first step of G5 digestion was incubated with Xylsa”.

Source: publication PMC5030134 (Nature chemical biology, 2016)
